Measurements: the supplement of paper PMC10307832

Legend:
Experiment in all cases: relative viability (nuclei count vs DMSO), 5 days (fraction); higher = more cells survive
Daporinad + Bortezomib = compound: O=C(/C=C/c1cccnc1)NCCCCC1CCN(C(=O)c2ccccc2)CC1 [Daporinad] + CC(C)C[C@H](NC(=O)[C@H](Cc1ccccc1)NC(=O)c1cnccn1)B(O)O [Bortezomib] (partner 0.002 µM)
In short: (§1)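 Cells from lung cancer lines were seeded into 1536-well plates and, one day later, dosed by pin tool. Treatments were either a single drug or a fixed dose of an anchor drug with five library-drug doses (not always all listed) in √10 steps. After 5 days, nuclei were stained in a one-step fixation (final 0.05% Triton X-100, 1% formaldehyde, 1 ug/ml Hoechst) and counted on 4× images, and relative viability is the treated-to-vehicle nuclei ratio, as the median of duplicate plates.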

Daporinad + Linsitinib = compound: O=C(/C=C/c1cccnc1)NCCCCC1CCN(C(=O)c2ccccc2)CC1 [Daporinad] + C[C@]1(O)C[C@@H](c2nc(-c3ccc4ccc(-c5ccccc5)nc4c3)c3c(N)nccn32)C1 [Linsitinib] (partner 1 µM)
In short: as §1

R406 + Alpelisib = compound: COc1cc(Nc2ncc(F)c(Nc3ccc4c(n3)NC(=O)C(C)(C)O4)n2)cc(OC)c1OC [R406] + Cc1nc(NC(=O)N2CCC[C@H]2C(N)=O)sc1-c1ccnc(C(C)(C)C(F)(F)F)c1 [Alpelisib] (partner 2 µM)
In short: as §1

R406 + Olaparib = compound: COc1cc(Nc2ncc(F)c(Nc3ccc4c(n3)NC(=O)C(C)(C)O4)n2)cc(OC)c1OC [R406] + O=C(c1cc(Cc2n[nH]c(=O)c3ccccc23)ccc1F)N1CCN(C(=O)C2CC2)CC1 [Olaparib] (partner 8 µM)
In short: as §1

| Cell Line | relative viability (Daporinad + Bortezomib; first compound 0.0005 µM) | relative viability (Daporinad + Bortezomib; first compound 0.001581 µM) | relative viability (Daporinad + Bortezomib; first compound 0.005 µM) | relative viability (Daporinad + Bortezomib; first compound 0.01581 µM) | relative viability (Daporinad + Linsitinib; first compound 0.0005 µM) | relative viability (Daporinad + Linsitinib; first compound 0.001581 µM) | relative viability (Daporinad + Linsitinib; first compound 0.005 µM) | relative viability (Daporinad + Linsitinib; first compound 0.01581 µM) | relative viability (R406 + Alpelisib; first compound 0.08 µM) | relative viability (R406 + Alpelisib; first compound 0.253 µM) | relative viability (R406 + Alpelisib; first compound 0.8 µM) | relative viability (R406 + Alpelisib; first compound 2.53 µM) | relative viability (R406 + Alpelisib; first compound 8 µM) | relative viability (R406 + Olaparib; first compound 0.08 µM) | relative viability (R406 + Olaparib; first compound 0.253 µM) | relative viability (R406 + Olaparib; first compound 0.8 µM) | relative viability (R406 + Olaparib; first compound 2.53 µM) | relative viability (R406 + Olaparib; first compound 8 µM) |
| --- | --- | --- | --- | --- | --- | --- | --- | --- | --- | --- | --- | --- | --- | --- | --- | --- | --- | --- |
| NCI-H2087 | 0.676 | 0.644 | 0.868 | 0.662 | 0.991 | 0.908 | 0.956 | 0.98 | 0.959 | 1.06 | 1.11 | 1.09 | 0.757 | 0.558 | 0.581 | 0.739 | 0.488 | 0.32 |
| LK-2 |  |  |  |  | 0.665 | 0.648 | 0.362 | 0.196 | 0.98 | 1.05 | 1.02 | 0.803 | 0.566 | 0.592 | 1.13 | 0.888 | 0.661 | 0.305 |
| NCI-H1437 | 0.414 | 0.629 | 0.561 | 0.554 | 0.969 | 0.986 | 0.976 | 0.965 | 1 | 1.09 | 1.17 | 0.928 | 0.487 | 0.611 | 0.622 | 0.647 | 0.546 | 0.431 |
| COR-L23 | 1.01 | 0.973 | 0.753 | 0.212 | 0.964 | 0.959 | 0.942 | 0.189 | 0.725 | 0.947 | 0.828 | 0.553 | 0.388 | 0.385 | 0.354 | 0.334 | 0.246 | 0.209 |
| ABC-1 | 0.265 | 0.32 | 0.312 | 0.309 | 0.887 | 1.04 | 0.882 | 0.792 | 1.3 | 0.963 | 1.29 | 0.821 | 0.518 | 0.77 | 0.805 | 0.923 | 0.501 | 0.576 |
| SK-MES-1 |  |  |  |  | 1.1 | 1.13 | 1.17 | 0.905 | 0.749 | 0.964 | 0.957 | 0.414 | 0.406 | 0.613 | 0.677 | 0.715 | 0.327 | 0.174 |
| PC-14 | 0.845 | 0.891 | 0.988 | 0.533 | 1.03 | 1.04 | 0.884 | 0.905 | 0.947 | 1.01 | 1.01 | 0.664 | 0.636 | 0.271 | 0.257 | 0.225 | 0.291 | 0.0748 |
| SW 900 |  |  |  |  |  |  |  |  |  |  |  |  |  | 0.956 | 0.855 | 0.57 | 0.492 | 0.115 |
| A549 |  |  |  |  | 0.535 | 0.604 | 0.516 | 0.627 | 0.703 | 0.932 | 0.811 | 0.646 | 0.164 | 0.28 | 0.464 | 0.328 | 0.0554 | 0.306 |
| A-427 | 0.952 | 1.02 | 0.974 | 0.784 | 0.96 | 1.08 | 1.1 | 0.881 | 1.14 | 1.17 | 1.12 | 0.928 | 0.843 | 0.717 | 0.762 | 0.853 | 0.682 | 0.435 |
| NCI-H1792 | 0.924 | 0.98 | 0.711 | 1 | 0.392 | 0.486 | 0.359 | 0.686 | 0.626 | 0.665 | 0.752 | 0.541 | 0.563 | 0.456 | 0.402 | 0.491 | 0.189 | 0.194 |
| LCLC-97TM1 | 0.302 | 0.604 | 0.657 | 0.533 | 0.204 | 0.235 | 0.193 | 0.17 | 0.209 | 0.265 | 0.267 | 0.202 | 0.256 | 0.371 | 0.465 | 0.534 | 0.253 | 0.179 |
| ChaGo-K-1 | 0.912 | 0.574 | 0.859 | 0.562 |  |  |  |  |  |  |  |  |  | 0.381 | 0.485 | 0.438 | 0.422 | 0.296 |
| NCI-H1944 |  |  |  |  | 1.17 | 1.26 | 1.34 | 1.25 | 0.758 | 0.84 | 0.757 | 0.652 | 0.512 | 0.35 | 0.382 | 0.38 | 0.361 | 0.328 |
| NCI-H1648 |  |  |  |  |  |  |  |  |  |  |  |  |  | 0.758 | 1.06 | 0.906 | 0.886 | 0.884 |
| NCI-H358 |  |  |  |  | 0.64 | 0.822 | 0.882 | 0.791 | 0.877 | 0.908 | 1 | 0.373 | 0.234 | 0.562 | 0.617 | 0.632 | 0.279 | 0.209 |
| NCI-H522 |  |  |  |  |  |  |  |  |  |  |  |  |  | 0.518 | 0.578 | 0.713 | 0.636 | 0.511 |
| NCI-H2170 |  |  |  |  |  |  |  |  | 0.783 | 0.773 | 0.904 | 0.576 | 0.714 | 0.63 | 0.573 | 0.648 | 0.44 | 0.488 |
| NCI-H1793 |  |  |  |  | 0.697 | 0.853 | 1.14 | 0.926 | 1.08 | 0.691 | 0.921 | 0.434 | 0.32 | 0.781 | 0.794 | 0.946 | 0.356 | 0.144 |
